Results reported in patent US12642769B2, “Delivery carrier into cell” (Kabusikikaisya ITO, priority 2019, dated 2026).

Columns and labels:
Format in all cases: cell-based
[1] = system: LabCyte EPI-MODEL normal dermal epidermis model; assay: in vitro skin irritation test OECD 439, pH-responsive carriers; settings: the lower the score, the higher the toxicity; Water (negative control) 100 points
Procedure: In vitro skin irritation tests were conducted using cultured cell according to OECD guidelines. We used OECD GUIDELINES FOR THE TESTING OF CHEMICALS, 439. (2015) for guidelines. As a result of the skin irritation test using LabCyte EPI-MODEL as a normal dermal epidermis model (the lower the score, the higher the toxicity and the lower the safety), the scores were 3 points for 5% SLS (positive control) and 100 points for Water (negative control), 134 points for A-2, 109 points for B-2,95 points for C-2, and 91 points for D-2, and the percentage of viable cell was more than 50% for all the preparations and the skin irritation was denied.

[2] = system: LabCyte EPI-MODEL normal skin epidermis model; assay: in vitro skin irritation test OECD TG-439, temperature-responsive carriers; settings: the lower the score, the higher the toxicity; Water (negative control) 100 points
Procedure: In Vitro Skin Irritation Test of Cultured Cell According to OECD Guidelines. OECD
Guidelines for the Testing of Chemicals, 439. (2015)
LabCyte EPI-MODEL was used as a normal skin epidermis model, and a skin irritation test was performed and scored. As a result (the lower the score, the higher the toxicity), the score is 3 points for 5% SLS (positive control), 100 points for Water (negative control), 125 points for A-1 of the present invention, and B-1 was 101, C-1 was 89, and D-1 was 83, and the viable cell rate was 50% or higher in all the formulations. All skin irritation was denied.

[3] = system: LabCyte EPI-MODEL normal skin epidermis model; assay: in vitro skin irritation test OECD 439, photoresponsive carriers; settings: the higher the score, the higher the safety; Water (negative control) 100 points
Procedure: In vitro skin irritation tests were performed on cultured cell according to OECD guidelines. The guidelines used were OECD GUIDELINES FOR THE TESTING OF CHEMICALS, 439. (2015). LabCyte EPI-MODEL was used as a normal skin epidermis model, and a skin irritation test was performed and scored. As a result (the higher the score, the higher the safety), the score is 5% SLS (positive control) 3 points, Water (negative control) 100 points, A-1 of the present invention is 111 points, B-1 was 98 points, C-1 was 87 points, and D-1 was 79 points. The viable cell rate of all the preparations was 50% or more, and skin irritation was denied.

Measured: skin irritation test score

CCCCCCCCCCCCOS(=O)(=O)[O-].[Na+] [SLS]
3 points: [1] | [2] | [3]
